{"source": "paper PMC7502707", "about": "“Characterization and validation of a preventative therapy for hypertrophic cardiomyopathy in a murine model of the disease” (Proceedings of the National Academy of Sciences of the …, 2020)", "key": {"[1]": {"tested_on": "wt and cTnI-G203S cardiac myocytes", "assay": "Mitochondrial membrane potential (JC-1) after in vitro peptide exposure", "type": "cell-based, mouse", "conditions": "10 μM BayK(−), calcium-free HBS", "description": "Fluorescence was measured on a Hamamatsu Orca ER digital camera attached to an inverted Nikon TE2000-U microscope. Fluorescent indicator 5,5′,6,6′-tetrachloro-1,1′,3,3′-tetraethylbenzimidazolylcarbocyanine iodide was used to measure Ψm in cardiac myocytes, as previously described (JC-1, Molecular Probes) ([61]). Autofluorescence was used to measure flavoprotein oxidation in cardiac myocytes based on previously described methods ([13], [29], [62]). Responses to drugs were reported as a percentage increase from the basal average. Detailed methods are provided in SI Appendix.\nSupporting Materials and Methods\nIsolation of ventricular myocytes\nMyocytes were isolated from wt and cTnI-G203S mice. Animals were anesthetized with pentobarbitone sodium (240 mg/kg) via intraperitoneal injection prior to excision of the heart. Cells were isolated as previously described (1-3). Mouse hearts were excised, cannulated onto a Langendorff apparatus via the aorta, and perfused with Krebs-Henseleit Buffer (KHB) containing […]\nO2/CO2 at 37°C) for 4 min at 37°C. Hearts were then perfused with KHB supplemented with 2.4 mg/ml collagenase B for 3 min, followed by a further 8 min perfusion in the presence of 40 μM calcium. Following perfusion, aorta and atria were removed then ventricles teased apart and triturated to dissociate myocytes into suspension. Myocyte suspension was spun at 500 RPM for 3 min, supernatant discarded, and myocytes resuspended in calcium free Hepes-Buffered Solution […]\nHepes and 2 glutamine (pH = 7.4 at 37°C) in the presence or absence of 3 mM EGTA (for 0 mM calcium experiments). For calcium containing experiments, calcium was titrated back to achieve a final extracellular concentration of 1.8 mM. […]\nAxopatch 200B voltage-clamp amplifier (Molecular Devices) with a Digidata 1440A interface and pClamp10.5 software (Molecular Devices). A Ag/AgCl electrode was used to ground the bath. Once the whole-cell configuration was achieved, the holding potential was set at –80 mV. […]\nFor calcium transient studies, microelectrodes contained (in mM): KCl 20, NaCl 10, MgCl2 2, CaCl2 0.03, potassium L-glutamate 120, EGTA 0.1, HEPES 5 and MgATP 5 (pH adjusted to 7.2 at 37°C with NaOH) supplemented with 2 µM Fura-2 AM (Fura-2, Molecular Probes, Eugene, Oregon). […]\nNaCl 140, KCl 5.4, CaCl2 1, MgCl2 0.5, HEPES 5.5 and glucose 11 (pH adjusted to 7.6 with NaOH), […]\nFluorescence was measured on a Hamamatsu Orca ER digital camera attached to an inverted Nikon TE2000-U microscope. […]\nAdditionally, individual 580 nm and 535 nm wavelength signals were assessed in each experiment to determine whether the fluorescent indicator was accurately measuring Ψm. […] Ratiometric JC-1 or flavoprotein fluorescent signals were quantified by manually tracing myocytes and subtracting an equivalent background region […]"}, "[2]": {"tested_on": "myocytes isolated from wt and cTnI-G203S mice", "assay": "Mitochondrial membrane potential (JC-1) in myocytes isolated from treated mice", "type": "in vivo, mouse", "procedure": "(§1) Male mice expressing the human cTnI gene encoding the human disease-causing mutation cTnI-G203S were used for all studies. […] Male mice expressing the normal human cTnI gene were used as controls (wt). Ten-week-old mice were used for in vitro studies. For in vivo studies, 20- or 30-wk-old cTnI-G203S mice were treated with 10 μM AID-TAT or AID[S]-TAT via intraperitoneal injection, 3×/wk/5 wk. In vivo dose of AID-TAT or AID[S]-TAT (10 μM) was calculated based on blood volume, equating to ∼2 mg/kg total BW. Male animal models were used to eliminate potential differences in responses due to sex. Experiments were performed in a total of 21 wt (AID[S]-TAT), 6 wt (AID-TAT), 15 cTnI-G203S (AID[S]-TAT), and 26 cTnI-G203S (AID-TAT) mice. All animals were randomly assigned to treatment groups.\nCells were incubated in calcium-free HBS (supplemented with 3 mM EGTA and 200 nM JC-1) for at least 3 h prior to measuring changes in m. Sodium cyanide (NaCN, 40 mM, mitochondrial electron transport blocker) was added at the end of each experiment to collapse m, confirming that the JC-1 signal was indicative of m.\nAdditionally, individual 580 nm and 535 nm wavelength signals were assessed in each experiment to determine whether the fluorescent indicator was accurately measuring m. Autofluorescence was used to measure flavoprotein oxidation in cardiac myocytes based on previously described methods (ex = 480 nm, em = 535 nm, interval = 1 min, exposure = 1.5 seconds) (4, 6, 7). Carbonyl cyanide-4-(trifluoromethoxy)phenylhydrazone (FCCP, 50 μM, mitochondrial electron transport chain uncoupler) was added at the end of each experiment to increase flavoprotein oxidation confirming signal was mitochondrial in origin. Ratiometric JC-1 or flavoprotein fluorescent signals were quantified by manually tracing myocytes and subtracting an equivalent background region\nResponses to drugs were reported as a percentage increase from the basal average. […]"}, "[3]": {"tested_on": "myocytes isolated from wt and cTnI-G203S mice", "assay": "Flavoprotein oxidation in myocytes isolated from treated mice", "type": "in vivo, mouse", "conditions": "myocytes from precardiomyopathic cTnI-G203S mice treated 10 μM i.p. 3×/wk/5 wk from 20 wk", "procedure": "as §1\nAdditionally, individual 580 nm and 535 nm wavelength signals were assessed in each experiment to determine whether the fluorescent indicator was accurately measuring m. […] Ratiometric JC-1 or flavoprotein fluorescent signals were quantified by manually tracing myocytes and subtracting an equivalent background region […]"}, "[4]": {"tested_on": "myocytes isolated from wt and cTnI-G203S mice", "assay": "MTT assay (formation of formazan) in myocytes isolated from treated mice", "type": "in vivo, mouse", "conditions": "myocytes from precardiomyopathic cTnI-G203S mice treated 10 μM i.p. 3×/wk/5 wk from 20 wk", "description": "The rate of reduction of MTT (Sigma-Aldrich) to formazan by the mitochondrial electron transport chain was measured in intact mouse cardiac myocytes, as previously described ([22], [25]). Each n represents number of replicates for each treatment group from cardiac myocytes isolated from a total of six wt [AID(S)-TAT], four cTnI-G203S [AID(S)-TAT], and three (AID-TAT) mice. Detailed methods are provided in SI Appendix. […]\nThe rate of reduction of 3-(4,5-Dimethyl-2-thiazolyl)-2,5-diphenyl-2H-tetrazolium bromide (MTT, Sigma-Aldrich, St. Louis, Missouri) to formazan by the mitochondrial electron transport chain was measured in intact mouse cardiac myocytes as previously described (1, 9). This reaction is dependent upon the presence of reduced nicotinamide adenine dinucleotide (NADH) and reduced nicotinamide adenine dinucleotide phosphate (NADPH), and intact mitochondrial electron transport (10). Cardiac myocytes were treated with relevant drugs in 96 well plates. MTT was added to each well to a final concentration of 0.5 mg/ml and the rate of the increase in absorbance immediately measured using a spectrophotometer at 37°C (PowerWave XS, 570 nm, reference wavelength of 620 nm). The rate of the increase in absorbance in response to treatments was expressed as a percentage of the rate of the increase prior to the addition of treatments. Each n represents number of replicates for each treatment group from cardiac myocytes isolated from a total of 6 wt (AID[S]- TAT), 4 cTnI-G203S (AID[S]-TAT), and 3 (AID-TAT) mice.\nImmunoblot of ICa-L protein"}}}
{"sequence": "QQLEEDLKGYLDWITQAE [AID-TAT]", "values": [{"measurement": "increase in Ψm (JC-1) in response to BayK(−)", "setting": "[1]; cTnI-G203S myocytes, 1 μM peptide in vitro", "value": "attenuated the response"}, {"measurement": "increase in Ψm (JC-1) in response to BayK(−)", "setting": "[1]; cTnI-G203S myocytes, 10 μM peptide in vitro", "value": "significantly attenuated the response"}, {"measurement": "increase in Ψm (JC-1) in response to BayK(−)", "setting": "[1]; wt myocytes, 1 μM peptide in vitro", "value": "attenuated the response in cTnI-G203S but not wt myocytes"}, {"measurement": "increase in Ψm (JC-1) in response to BayK(−)", "setting": "[1]; wt myocytes, 10 μM peptide in vitro", "value": "significantly attenuated the response"}, {"measurement": "cardiac Ψm and mitochondrial metabolic activity (flavoprotein oxidation) following BayK(−)", "setting": "[2]; myocytes from cTnI-G203S mice with established cardiomyopathy treated 10 μM 3×/wk/5 wk from 30 wk", "value": "does not restore cardiac Ψm or mitochondrial metabolic activity to wt levels"}, {"measurement": "increase in Ψm (JC-1) following BayK(−)", "setting": "[2]; myocytes from precardiomyopathic cTnI-G203S mice treated 10 μM i.p. 3×/wk/5 wk from 20 wk", "value": "reduced this response to a level comparable to that observed in wt myocytes"}, {"measurement": "increase in flavoprotein oxidation following BayK(−)", "setting": "[3]", "value": "reduced this response to a level comparable to that observed in wt myocytes"}, {"measurement": "increase in metabolic activity (formazan from MTT) following BayK(−)", "setting": "[4]", "value": "reduced this response to a level comparable to that observed in wt myocytes"}]}
